{
  "source": "ChEMBL document CHEMBL5528066",
  "about": "“Discovery of Novel N-(Anthracen-9-ylmethyl) Benzamide Derivatives as ZNF207 Inhibitors Promising in Treating Glioma” (J Med Chem, 2024)",
  "key": {"[1]": {"test_system": "U-251", "test": "Induction of apoptosis in human U-251MG cells at 1.25 uM incubated for 24 hrs by Annexin V-FITC/PI staining based flow cytometry analysis", "type": "functional, cell-based"}, "[2]": {"test": "Toxicity in female C57BL/6 mouse assessed as change in cellular structure of spleen at 45 mg/kg, po administered once a day for 2 weeks by H and E staining based analysis", "type": "organism-based", "conditions": "in vivo, 336 h"}, "[3]": {"test_system": "U-251", "test": "Inhibition of sphere formation in human U-251MG cells assessed as fold reduction in sphere initiating frequency at 2 uM incubated for 10 days by microscopic analysis relative to control", "type": "functional", "conditions": "time 10 day"}, "[4]": {"test_system": "H4", "test": "Antiproliferative activity against human H4 cells assessed as inhibition of cell growth measured after 72 hrs by CCK-8 assay", "type": "functional, cell-based", "conditions": "H4, 72 h"}, "[5]": {"test_system": "Hs 683", "test": "Inhibition of sphere formation in human Hs 683 cells at 2 uM measured after 10 days in well containing 1 cells by microscopic analysis", "type": "functional, cell-based", "conditions": "time 10.0 day"}, "[6]": {"test_system": "Hs 683", "test": "Inhibition of sphere formation in human Hs 683 cells at 2 uM measured after 10 days in well containing 10000 cells by microscopic analysis", "type": "functional, cell-based", "conditions": "time 10.0 day"}, "[7]": {"test_system": "H4", "test": "Downregulation of SOX2 protein expression in human H4 cells at 2 to 4 uM incubated for 48 hrs by Western blot analysis", "type": "functional, cell-based", "conditions": "dose 2-4 µM"}, "[8]": {"test_system": "H4", "test": "Inhibition of sphere formation in human H4 cells at 4 uM measured after 10 days in well containing 100 cells by microscopic analysis", "type": "functional, cell-based", "conditions": "time 10.0 day"}, "[9]": {"test_system": "H4", "test": "Inhibition of sphere formation in human H4 cells assessed as fold reduction in sphere initiating frequency at 4 uM incubated for 10 days by microscopic analysis relative to control", "type": "functional", "conditions": "time 10 day"}, "[10]": {"test": "Drug concentration in female Sprague-Dawley rat lung at 45 mg/kg, po measured after 8 hrs by LC-MS/MS analysis", "type": "ADME, organism-based", "conditions": "read-out: Ct"}, "[11]": {"test_system": "LN-229", "test": "Inhibition of sphere formation in human LN-229 cells assessed as fold reduction in sphere initiating frequency at 1 uM incubated for 10 days by microscopic analysis relative to control", "type": "functional", "conditions": "time 10 day"}, "[12]": {"test_system": "U-251", "test": "Inhibition of sphere formation in human U-251MG cells at 4 uM measured after 10 days in well containing 10 cells by microscopic analysis", "type": "functional, cell-based", "conditions": "time 10.0 day"}, "[13]": {"test_system": "MKN-45", "test": "Antiproliferative activity against human MKN-45 cells assessed as inhibition of cell growth incubated for 72 hrs by CCK-8 assay", "type": "functional, cell-based", "conditions": "MKN-45, 72 h"}, "[14]": {"biological_target": "BUB3-interacting and GLEBS motif-containing protein ZNF207 (Homo sapiens, UniProt O43670)", "sequence (O43670 whole entry)": "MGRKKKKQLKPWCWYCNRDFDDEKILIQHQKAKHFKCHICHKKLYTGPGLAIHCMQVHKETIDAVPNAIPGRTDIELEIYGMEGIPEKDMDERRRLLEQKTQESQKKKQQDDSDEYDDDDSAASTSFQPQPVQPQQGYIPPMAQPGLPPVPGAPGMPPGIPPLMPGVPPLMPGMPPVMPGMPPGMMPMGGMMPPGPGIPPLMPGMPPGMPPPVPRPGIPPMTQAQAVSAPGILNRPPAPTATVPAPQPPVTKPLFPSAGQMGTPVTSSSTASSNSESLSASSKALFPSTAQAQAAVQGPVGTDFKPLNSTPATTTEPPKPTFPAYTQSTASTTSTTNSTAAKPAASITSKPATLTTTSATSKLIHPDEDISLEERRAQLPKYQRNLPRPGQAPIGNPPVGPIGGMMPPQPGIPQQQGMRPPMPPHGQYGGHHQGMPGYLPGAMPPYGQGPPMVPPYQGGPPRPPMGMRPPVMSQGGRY", "test": "Binding affinity to ZNF207 in human U-251MG cells assessed as thermal stabilization by measuring increase in melting temperature at 30 uM incubated for 3 hrs by CETSA", "type": "cell-based"}, "[15]": {"test": "Drug concentration in male Sprague-Dawley rat lung at 45 mg/kg, po measured after 8 hrs by LC-MS/MS analysis", "type": "ADME, organism-based", "conditions": "read-out: Ct"}, "[16]": {"test_system": "LN-229", "test": "Inhibition of sphere formation in human LN-229 cells at 4 uM measured after 10 days in well containing 1 cells by microscopic analysis", "type": "functional, cell-based", "conditions": "time 10.0 day"}, "[17]": {"test_system": "U-251", "test": "Inhibition of sphere formation in human U-251MG cells at 1 uM measured after 10 days in well containing 10000 cells by microscopic analysis", "type": "functional, cell-based", "conditions": "time 10.0 day"}, "[18]": {"test_system": "LN-229", "test": "Inhibition of sphere formation in human LN-229 cells at 4 uM measured after 10 days in well containing 10 cells by microscopic analysis", "type": "functional, cell-based", "conditions": "time 10.0 day"}, "[19]": {"test_system": "LN-229", "test": "Antitumor activity against human LN-229 cells xenografted in BALB/c nude mouse assessed as tumor growth delay by measuring tumor volume at 45 mg/kg, po administered once a day and measured every 2 days for 49 days (reference value: 700 […])", "type": "functional", "conditions": "time 49 day"}, "[20]": {"test": "Drug concentration in male Sprague-Dawley rat stomach at 45 mg/kg, po measured after 8 hrs by LC-MS/MS analysis", "type": "ADME, organism-based", "conditions": "read-out: Ct"}, "[21]": {"test_system": "H4", "test": "Inhibition of sphere formation in human H4 cells assessed as fold reduction in sphere initiating frequency at 2 uM incubated for 10 days by microscopic analysis relative to control", "type": "functional", "conditions": "time 10 day"}, "[22]": {"test_system": "LN-229", "test": "Inhibition of sphere formation in human LN-229 cells at 2 uM measured after 10 days in well containing 1 cells by microscopic analysis", "type": "functional, cell-based", "conditions": "time 10.0 day"}, "[23]": {"test_system": "U-251", "test": "Inhibition of sphere formation in human U-251MG cells at 4 uM measured after 10 days in well containing 10000 cells by microscopic analysis", "type": "functional, cell-based", "conditions": "time 10.0 day"}, "[24]": {"test": "Toxicity in male C57BL/6 mouse assessed as change in cellular structure of stomach at 45 mg/kg, po administered once a day for 2 weeks by H and E staining based analysis", "type": "organism-based", "conditions": "in vivo, 336 h"}, "[25]": {"test_system": "U-251", "test": "Inhibition of sphere formation in human U-251MG cells incubated for 168 hrs by microscopic analysis", "type": "functional, cell-based", "conditions": "U-251, 168 h"}, "[26]": {"test_system": "H4", "test": "Inhibition of sphere formation in human H4 cells at 2 uM measured after 10 days in well containing 1 cells by microscopic analysis", "type": "functional, cell-based", "conditions": "time 10.0 day"}, "[27]": {"test_system": "LN-229", "test": "Inhibition of cell migration in human LN-229 cells assessed as reduction in wound closure ability at 5 uM measured after 24 hrs by wound healing assay relative to control", "type": "functional"}, "[28]": {"test": "Toxicity in female C57BL/6 mouse assessed as change in cellular structure of heart at 45 mg/kg, po administered once a day for 2 weeks by H and E staining based analysis", "type": "organism-based", "conditions": "in vivo, 336 h"}, "[29]": {"test_system": "LN-229", "test": "Inhibition of sphere formation in human LN-229 cells at 8 uM measured after 10 days in well containing 1 cells by microscopic analysis", "type": "functional, cell-based", "conditions": "time 10.0 day"}, "[30]": {"test_system": "AGS", "test": "Antiproliferative activity against human AGS cells assessed as inhibition of cell growth incubated for 72 hrs by CCK-8 assay", "type": "functional, cell-based"}, "[31]": {"test_system": "Hs 683", "test": "Inhibition of colony formation in human Hs 683 cells assessed as reduction in number of cell clones treated on day 1 and measured after 14 days by crystal violet staining based microscopic analysis", "type": "functional", "conditions": "dose 0.625-5 µM, time 14.0 day"}, "[32]": {"test_system": "LN-229", "test": "Inhibition of sphere formation in human LN-229 cells at 2 uM measured after 10 days in well containing 10000 cells by microscopic analysis", "type": "functional, cell-based", "conditions": "time 10.0 day"}, "[33]": {"test_system": "LN-229", "test": "Downregulation of SOX2 protein expression in human LN-229 cells at 2 to 4 uM incubated for 48 hrs by Western blot analysis", "type": "functional, cell-based", "conditions": "dose 2-4 µM"}, "[34]": {"test_system": "U-251", "test": "Inhibition of colony formation in human U-251MG cells assessed as reduction in number of cell clones treated on day 1 and measured after 14 days by crystal violet staining based microscopic analysis", "type": "functional", "conditions": "dose 0.625-5 µM, time 14.0 day"}, "[35]": {"test_system": "LN-229-Luc", "test": "Antitumor activity against human Ln-229-Luc cells xenografted in BALB/c nude mouse assessed as reduction in tumor load at 45 mg/kg, po administered once a day and measured on day 25 by bioluminescence imaging analysis relative to control", "type": "functional", "conditions": "time 25 day"}, "[36]": {"test": "Toxicity in male C57BL/6 mouse assessed as change in cellular structure of intestine at 45 mg/kg, po administered once a day for 2 weeks by H and E staining based analysis", "type": "organism-based", "conditions": "in vivo, 336 h"}, "[37]": {"test_system": "H4", "test": "Inhibition of sphere formation in human H4 cells assessed as fold reduction in sphere initiating frequency at 8 uM incubated for 10 days by microscopic analysis relative to control", "type": "functional", "conditions": "time 10 day"}, "[38]": {"test": "Toxicity in female C57BL/6 mouse assessed as change in cellular structure of lung at 45 mg/kg, po administered once a day for 2 weeks by H and E staining based analysis", "type": "organism-based", "conditions": "in vivo, 336 h"}},
  "note": "Active and inactive are the calls of the source. The rule behind the calls is not given here.",
  "data": [
    {"compound": "N#CC1(C(=O)NCCC2CCN(Cc3ccccc3)CC2)CC2(Br)c3ccccc3C1c1ccccc12", "note": "(racemic)", "values": [
      {"measurement": "Activity", "setting": "[1]", "result": "Active"},
      {"measurement": "Activity", "setting": "[2]", "result": "Non-Toxic"},
      {"measurement": "fold change (FC)", "setting": "[3]", "result": 35.63},
      {"measurement": "IC50", "setting": "[4]", "result": 720, "unit": "nM"},
      {"measurement": "inhibition", "setting": "[5]", "result": "Active"},
      {"measurement": "inhibition", "setting": "[6]", "result": "inactive"},
      {"measurement": "Activity", "setting": "[7]", "result": "Active"},
      {"measurement": "inhibition", "setting": "[8]", "result": "Active"},
      {"measurement": "fold change (FC)", "setting": "[9]", "result": 32.7},
      {"measurement": "concentration at 8 h", "setting": "[10]", "result": 6360, "unit": "ng/g"},
      {"measurement": "fold change (FC)", "setting": "[11]", "result": 4.37},
      {"measurement": "inhibition", "setting": "[12]", "result": "Active"},
      {"measurement": "IC50", "setting": "[13]", "result": 3840, "unit": "nM"},
      {"measurement": "ΔTm", "setting": "[14]", "result": 5.2, "unit": "°C"},
      {"measurement": "concentration at 8 h", "setting": "[15]", "result": 2050, "unit": "ng/g"},
      {"measurement": "inhibition", "setting": "[16]", "result": "Active"},
      {"measurement": "inhibition", "setting": "[17]", "result": "inactive"},
      {"measurement": "inhibition", "setting": "[18]", "result": "Active"},
      {"measurement": "Activity", "setting": "[19]", "result": 200, "unit": "mm3"},
      {"measurement": "concentration at 8 h", "setting": "[20]", "result": 608, "unit": "ng/g"},
      {"measurement": "fold change (FC)", "setting": "[21]", "result": 25.31},
      {"measurement": "inhibition", "setting": "[22]", "result": "Active"},
      {"measurement": "inhibition", "setting": "[23]", "result": "inactive"},
      {"measurement": "Activity", "setting": "[24]", "result": "Non-Toxic"},
      {"measurement": "IC50", "setting": "[25]", "result": 870, "unit": "nM"},
      {"measurement": "inhibition", "setting": "[26]", "result": "Active"},
      {"measurement": "inhibition at 5 µM", "setting": "[27]", "result": 16.6, "unit": "%"},
      {"measurement": "Activity", "setting": "[28]", "result": "Non-Toxic"},
      {"measurement": "inhibition", "setting": "[29]", "result": "Active"},
      {"measurement": "IC50", "setting": "[30]", "result": 9420, "unit": "nM"},
      {"measurement": "inhibition", "setting": "[31]", "result": "Dose-Dependent Effect"},
      {"measurement": "inhibition", "setting": "[32]", "result": "inactive"},
      {"measurement": "Activity", "setting": "[33]", "result": "Active"},
      {"measurement": "inhibition", "setting": "[34]", "result": "Dose-Dependent Effect"},
      {"measurement": "fold change (FC)", "setting": "[35]", "result": 7.6},
      {"measurement": "Activity", "setting": "[36]", "result": "Non-Toxic"},
      {"measurement": "fold change (FC)", "setting": "[37]", "result": 51.75},
      {"measurement": "Activity", "setting": "[38]", "result": "Non-Toxic"}
    ]}
  ]
}
